Measurements as given in PubChem BioAssay (NCI).
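Results reflect a 48-hour exposure of cells in 96-well plates to compound at five concentrations. TGI marks complete inhibition of growth.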

Key:
Experiment in all cases: NCI tumour cell line growth inhibition, 48 h
[1] = system: CAKI-1 renal
[2] = system: IGROV1 ovarian
[3] = system: BT-549 breast
[4] = system: OVCAR-8 ovarian
[5] = system: K-562 leukemia
[6] = system: NCI-H522 lung
[7] = system: HOP-92 NSCLC
[8] = system: SK-OV-3 ovarian
[9] = system: MCF7 breast
[10] = system: HS 578T breast
[11] = system: NCI-H460 lung
[12] = system: 786-0 renal
[13] = system: SF-268 CNS
[14] = system: MDA-MB-435
[15] = system: A498 renal
[16] = system: HCT-116 colon
[17] = system: MALME-3M melanoma
[18] = system: OVCAR-4 ovarian
[19] = system: SK-MEL-28 melanoma
[20] = system: OVCAR-3 ovarian
[21] = system: LOX IMVI melanoma
[22] = system: PC-3 prostate
[23] = system: SK-MEL-5 melanoma
[24] = system: SF-295 CNS
[25] = system: M14 melanoma
[26] = system: OVCAR-5 ovarian
[27] = system: NCI-H23 lung
[28] = system: EKVX NSCLC
[29] = system: NCI-H226 lung
[30] = system: HOP-62 NSCLC
[31] = system: HCC-2998 colon
[32] = system: UO-31 renal
[33] = system: U251 CNS
[34] = system: MDA-N
[35] = system: SK-MEL-2 melanoma
[36] = system: SNB-19 CNS
[37] = system: RXF 393 renal
[38] = system: SF-539 CNS
[39] = system: T-47D breast
[40] = system: NCI/ADR-RES ovarian
[41] = system: MOLT-4 leukemia
[42] = system: UACC-257 melanoma
[43] = system: SR leukemia
[44] = system: SNB-75 CNS
[45] = system: COLO 205 colon
[46] = system: TK-10 renal
[47] = system: HT29 colon
[48] = system: SN12C renal
[49] = system: ACHN renal
[50] = system: RPMI-8226 leukemia
[51] = system: A549 NSCLC
[52] = system: HL-60(TB) leukemia
[53] = system: CCRF-CEM leukemia
[54] = system: KM12 colon
[55] = system: SW-620 colon
[56] = system: MDA-MB-231 breast
[57] = system: DU-145 prostate
[58] = system: HCT-15 colon
[59] = system: DLD-1 colon
[60] = system: LXFL 529 NSCLC
[61] = system: DMS 114 small cell lung
[62] = system: M19-MEL melanoma
[63] = system: UACC-62 melanoma
[64] = system: KM20L2 colon
[65] = system: DMS 273 small cell lung
[66] = system: SNB-78 CNS

Structure (SMILES): Oc1ccc(Cn2c(-c3ccc(O)c(O)c3)nc3ccccc32)cc1O
- TGI [1]: 54.6 µM
- TGI [2]: 66.4 µM
- TGI [3]: 51 µM
- TGI [4]: 25.5 µM
- TGI [5]: 55.9 µM
- TGI [6]: 17.1 µM
- TGI [7]: 41.9 µM
- TGI [8]: 59.6 µM
- TGI [9]: > 100 µM
- TGI [10]: 35.2 µM
- TGI [11]: 63.4 µM
- TGI [12]: 29 µM
- TGI [13]: > 100 µM
- TGI [14]: 32 µM
- TGI [15]: > 100 µM
- TGI [16]: 16.3 µM
- TGI [17]: 41.4 µM
- TGI [18]: 54.1 µM
- TGI [19]: 78 µM
- TGI [20]: 41.3 µM
- TGI [21]: 26 µM
- TGI [22]: > 100 µM
- TGI [23]: 50.9 µM
- TGI [24]: 68 µM
- TGI [25]: 42.2 µM
- TGI [26]: > 100 µM
- TGI [27]: 75.4 µM
- TGI [28]: 75.7 µM
- TGI [29]: 22.4 µM
- TGI [30]: 38 µM
- TGI [31]: 27.3 µM
- TGI [32]: 47.3 µM
- TGI [33]: 47.1 µM
- TGI [34]: > 100 µM
- TGI [35]: 39 µM
- TGI [36]: 83.4 µM
- TGI [37]: > 100 µM
- TGI [38]: 24.1 µM
- TGI [39]: 45.1 µM
- TGI [40]: > 100 µM
- TGI [41]: 12.4 µM
- TGI [42]: > 100 µM
- TGI [43]: 18.2 µM
- TGI [44]: 39.4 µM
- TGI [45]: 31.1 µM
- TGI [46]: 38 µM
- TGI [47]: 84.7 µM
- TGI [48]: 40.6 µM
- TGI [49]: 60.2 µM
- TGI [50]: 46.1 µM
- TGI [51]: 66.2 µM
- TGI [52]: 51.1 µM
- TGI [53]: 32.8 µM
- TGI [54]: 35 µM
- TGI [55]: 42.1 µM
- TGI [56]: 43.3 µM
- TGI [57]: 66.9 µM
- TGI [58]: > 100 µM

Structure (SMILES): CCO[C@]12C[C@H](OC)[C@@]3(O)CC(C1[C@H]3O)C13C4C2[C@H](OC)C1[C@](COC)(CN4CC)[C@H](O)C[C@@H]3OC (some centres not stated)
- TGI [59]: > 100 µM
- TGI [60]: > 100 µM
- TGI [2]: > 100 µM
- TGI [4]: > 100 µM
- TGI [5]: > 100 µM
- TGI [8]: > 100 µM
- TGI [11]: > 100 µM
- TGI [13]: > 100 µM
- TGI [16]: > 100 µM
- TGI [61]: > 100 µM
- TGI [18]: > 100 µM
- TGI [19]: > 100 µM
- TGI [21]: > 100 µM
- TGI [23]: > 100 µM
- TGI [25]: > 100 µM
- TGI [62]: > 100 µM
- TGI [26]: > 100 µM
- TGI [27]: > 100 µM
- TGI [28]: > 100 µM
- TGI [29]: > 100 µM
- TGI [30]: > 100 µM
- TGI [31]: > 100 µM
- TGI [32]: > 100 µM
- TGI [63]: > 100 µM
- TGI [36]: > 100 µM
- TGI [37]: > 100 µM
- TGI [38]: > 100 µM
- TGI [41]: > 100 µM
- TGI [64]: > 100 µM
- TGI [42]: > 100 µM
- TGI [43]: > 100 µM
- TGI [45]: > 100 µM
- TGI [46]: > 100 µM
- TGI [47]: > 100 µM
- TGI [65]: > 100 µM
- TGI [66]: > 100 µM
- TGI [48]: > 100 µM
- TGI [49]: > 100 µM
- TGI [50]: > 100 µM
- TGI [51]: > 100 µM
- TGI [52]: > 100 µM
- TGI [53]: > 100 µM
- TGI [55]: > 100 µM
- TGI [58]: > 100 µM
